# Assay results published in a melting point compilation (Tetko et al.; mined from patent text by program, amines drawn as free bases though some values may be those of a salt).
row,SMILES,melting point [°C]
1,Clc1n[nH]c2cccc(NC3=NCCN3)c12,245 to 250
2,CN1CC(CO)C=C2c3cccc4[nH]c(Cl)c(c34)CC21 (centres undefined),207
3,CCCCCCCCCCCCCCCCCCOc1cc(O)cc(C(=O)OC)c1,93 to 94
4,C=CCc1cc(C(C)=O)c(OC)cc1OCCCCC#N,40 to 42
5,CS(=O)(=O)c1nc2c(F)cccc2s1,160
6,CCn1nc(OCC(=O)C(C)(C)C)c(-c2ccccc2)c1-c1ccc(S(C)(=O)=O)cc1,158 to 161
7,CC(C)(C)[Si](C)(C)OC1CC=C(c2ccc(NC(=O)OCc3ccccc3)c(F)c2)CC1 (centres undefined),116 to 119
8,COc1ccc(N=c2scc(-c3ccc(Cl)c(S(=O)(=O)N(C)C)c3)n2C)cc1,198 to 199
9,O=C(C=Cc1ccc(Cl)cc1)C=Cc1ccc(Cl)cc1,187 to 189
10,COC(=O)CC1SC2=Nc3ccccc3CN2C1=O (centres undefined),143 to 144
11,Cc1ccc(-c2cc(CN)c(=O)n(CC(C)C)n2)cc1,74.9 to 77.9
12,CCCCOc1ccc(/C=C/c2nc3c(c(=O)n(CC)c(=O)n3CC)n2C)cc1,123 to 124
13,CCCC1=C(C#N)C(c2ccccc2C)c2c[nH]nc2N1 (centres undefined),230
14,O=C(N[C@@H](Cc1ccc2ccccc2c1)[C@H]1CO1)OCc1ccccc1,115 to 116
15,O=C1CCN(c2ccncn2)CC1,61 to 65
16,CCOC(=O)c1ccc(OC2CCN(C(=O)OC(C)(C)C)CC2)cc1,76 to 78
17,Cc1sc2c(c1C(=O)CCN1CCN(c3nsc4ccccc34)CC1)NC(=O)CCC2,146 to 147
18,Cc1[nH]c2ccc([N+](=O)[O-])cc2c1Cn1ccnc1,240 to 242
19,COC(=O)c1nsc2nc3ccccc3n12,208 to 209
20,O[C@H]1c2cc(OC(c3ccccc3)c3ccccc3)ccc2OC[C@H]1Oc1cccnc1 (relative stereo),169 to 170
21,COC(=O)c1c(CN2CCC(S(C)(=O)=O)CC2)c(=O)c2ccc(F)cc2n1-c1ccccc1,190 to 191
22,Cc1cc(Cl)nc(N(C=O)c2ccccc2)n1,150 to 152
23,CCCCn1c(=O)c(NC(=O)Nc2c(C(C)C)cccc2C(C)C)c(-c2cccc(CCCO)c2)c2cccnc21,188 to 189
24,OCc1csc(Cl)c1Cl,63 to 65
25,COC(=O)[C@@H]1O[C@@H](c2ccccc2)N(NS(=O)(=O)c2ccc([N+](=O)[O-])cc2)[C@H]1c1ccccc1,118 to 120
26,Cc1ccc(-c2c(C(=O)NCc3ccccc3)oc(=O)c3ncccc23)cc1,208 to 209

row,SMILES,melting point [°C]
1,CN(C)CCOc1ccc2cc3ncc(C#N)c(Nc4ccc(Cl)cc4Cl)c3cc2c1,115 to 117
2,O=C(c1ccc2[nH]ccc2c1)N1CCN(CCc2ccccc2)CC1,105 to 108
3,c1cn(CCOc2ccc(-c3nnn[nH]3)cc2)cn1,196 to 197
4,C[C@H](Nc1ncnc2[nH]cnc12)c1oc2ccc(Br)cc2c(=O)c1-c1ccccc1,151 to 154
5,Nc1cccc(CCc2n[nH]c3c2c(=O)n(-c2ccccc2)c2ncccc32)c1,229 to 231
6,Cc1cc(C=O)c(OCCCCCCBr)c(C=O)c1,46
7,O=C1N=c2cc(Cl)c(Cl)cc2=NC1=O,> 400
8,CC1NC(=O)NN=C1c1ccc2c(c1)CCC(=O)N2CCO (centres undefined),237 to 243
9,Cc1ccc(-c2oc(C(F)(F)F)nc2-c2ccccc2)cc1S(N)(=O)=O,156 to 157
10,Cc1cc2c3c(c1)C(=O)C(=O)N3CCC2,188
11,NS(=O)(=O)c1nc2ccc(OCC3CO3)cc2s1 (centres undefined),149 to 152
12,CCNC(=O)Oc1ccc2cc(N3CC(COC)OC3=O)ccc2c1 (centres undefined),126 to 128
13,CC(=O)c1ccc(N2CCN(C)CC2)cc1,97 to 99
14,Nc1ncnc2c1c(Cl)cn2COC(O)CCO (centres undefined),175 to 176
15,O=C(Cc1cccs1)Nc1n[nH]c2cc(Cl)ccc12,210
16,COc1cccc(C(=O)Nc2nc(-c3cccc(C#N)c3)c(-c3ccncn3)s2)c1,255 to 256
17,Nc1nc2ccccc2c2c1ncn2CCOCCCc1cncnc1,159 to 161
18,CCCCCCCCCCCc1cccc(Oc2c(N)nc(N)nc2CC)c1,97 to 99
19,CC(C)(C)c1cc2sccc2c(C(C)(C)C)c1O,107
20,CC1(CCC(N)=O)C(=O)CCC1=O,159 to 162
21,CCOP(=O)(Cc1ccc(NC(=O)c2sc(SC)c3c2CCc2sc(CC)nc2-3)cc1)OCC,179 to 180
22,Fc1cccc(-c2ccc(Cl)nn2)c1,133 to 135
23,Cn1cncc1[N+](=O)[O-],58 to 60
24,CN1Cc2c(C#CC(C)(C)O)ncn2-c2ccccc2C1=O,168 to 169
25,O=C(Nc1ccc(O)cc1)c1cc(O)cc(O)c1,266
26,COC(=O)CNC(=O)n1ccc(O)cc1=O,124 to 126

row,SMILES,melting point [°C]
1,Nc1sc2c(c1C(=O)c1cccs1)CCCC2,115 to 118
2,COC1(c2nc3ccc(F)cc3s2)C=CC(=NS(=O)(=O)c2ccc(C)cc2)C=C1 (centres undefined),135
3,O=C1c2ccccc2C(=O)N1CCOCCl,69 to 72
4,CSc1c(CC(=O)O)ccc2c1[nH]c1ccccc12,210 to 212
5,OC1CCc2c(F)cc(F)cc2C1 (centres undefined),85
6,O=C(Nc1cccc(S(=O)(=O)NC2(CO)CCCC2)c1)c1cnn2c(C3CC3)cc(-c3ccc(Cl)cc3)nc12,255 to 257
7,O=C1OC(O)c2cccc(O)c21 (centres undefined),124 to 126
8,Cc1nc(-c2ccc(Cl)cc2)[nH]c1C(=O)N[C@H](C)[C@](O)(Cn1cncn1)c1ccc(F)cc1F,165 to 166
9,Cc1cccc(Cl)c1OC1CN(C(=O)N(C)C)C1,46 to 47
10,CC1(Sc2ccccc2)C(=O)C2CC=CC21 (centres undefined),49
11,Oc1cccc(-c2noc3cc(F)ccc23)c1,144 to 145
12,NS(=O)(=O)c1cc(C(=O)O)cc([N+](=O)[O-])c1Oc1cccc(C(F)(F)F)c1,210
13,COc1cccc(C2(CC(=O)O)CCCC2C(=O)O)c1 (centres undefined),175 to 180
14,COC[C@H]1CN(c2ccc3nc([C@@H](O)CCC#N)sc3c2)C(=O)O1,74 to 75
15,Cc1nc(C(=O)COc2ccc(CC3SC(=O)NC3=O)cc2)c(C)o1 (centres undefined),161 to 162
16,Cc1cccc(Cl)c1C(=O)N[C@@H](Cc1ccc(-c2c(C(F)(F)F)cc(C)n(C)c2=O)cc1)C(=O)O,220 to 223
17,O=C(O)c1cc2ccc(OCc3ccccc3)cc2oc1=O,196 to 197
18,COc1cc2nc(S(=O)Cc3cccn4ccnc34)[nH]c2cc1OC (centres undefined),195 to 196
19,CCOC(=O)COc1cc(F)ccc1C(=S)NCc1cccc([N+](=O)[O-])c1,118
20,O=c1[nH]c(F)c(Cl)c(Cl)c1Cl,172 to 176
21,[N-]=[N+]=NCC(COC(C(F)(F)F)(C(F)(F)F)C(F)(F)F)(COC(C(F)(F)F)(C(F)(F)F)C(F)(F)F)C(=O)O,97 to 98
22,Cc1ccnc2c([N+](=O)[O-])cc3c(c12)OCO3,183 to 185
23,CCCCCCCCCCCCCCCCOc1cc(NS(=O)(=O)c2cc([N+](=O)[O-])ccc2OCCOC)c(O)cc1C,85.5 to 86
24,O=C(O)[C@H](Cc1c[nH]c2ccccc12)NS(=O)(=O)c1ccc(N2CCC(c3ccccc3)CC2)cc1,103 to 107
25,CC(C)CN1C(=O)C(CC(=O)O)OC(C)(c2ccccc2Cl)c2cc(Cl)ccc21 (centres undefined),153 to 154
26,Cc1ccccc1N1CCc2c(C)nc3ccccc3c21,148 to 150

row,SMILES,melting point [°C]
1,CCCCCCCCCCN(O)C(=O)NCCC(=O)OC,77 to 78
2,O=C=Nc1cc(OCC(F)(F)F)ccc1OCC(F)(F)F,50 to 52
3,CCCC(Cc1ccc(OCCN2CCCCCC2)cc1)(C(=O)OCC)S(=O)(=O)c1ccc(OC)cc1 (centres undefined),55
4,CC(C)CCN1C(=O)C(NC(=O)Oc2ccccc2)C(=O)N(c2ccccc2)c2ccccc21 (centres undefined),70
5,N#CC1OC12CCN(C(=O)c1ccc(F)c(Cl)c1)CC2 (centres undefined),100 to 101
6,O=C1c2ccccc2C(=O)N1CCCOC(Cl)Cl,101 to 103
7,COc1ccc2c(c1)N(CCCCl)c1cccc(S(C)(=O)=O)c1S2,122 to 124
8,CC(=S)NC[C@H]1CN(c2ccc(N3CCC(C#N)(C(C#N)C#N)CC3)c(F)c2)C(=O)O1,178 to 180
9,CCN(CC)CC1CCCCN1CC(=O)N1c2ccccc2NC(=O)c2ccccc21 (centres undefined),171 to 172
10,Cc1cc(C)cc(Sc2c(C(C)C)nc(C=NO)n2C)c1,240 to 241
11,CC(=O)Nc1ccc(S(=O)(=O)NCC2CCN(C[C@H]3COc4ccc5[nH]ccc5c4O3)CC2)cc1,133 to 134
12,COc1ccc2c(c1)C(=O)c1cc(CC(=O)O)ccc1SC2,155 to 157
13,O=C(NCCCCn1ccnc1)Nc1ccccc1Cl,87 to 88
14,C=C(C)C(=O)OC(C1CCCC1)C(O)(C(F)(F)F)C(F)(F)F (centres undefined),59
15,CN(C)CCCn1c(-c2ccc(Br)cc2)cc2c1CCSC2,88 to 90
16,Cc1oc(-c2ccccc2)nc1COc1cccc(COc2nn(Cc3ccccc3)cc2C=O)c1,131 to 132
17,Cc1cc(C)c(Nc2nc(C)ccc2S(=O)(=O)c2ccc(OCc3ccccn3)cc2)c(C)c1,182 to 184
18,CCOc1ccc2cc(-c3nc(-c4ccccc4)no3)c(=O)oc2c1,229
19,COc1ccc2c(c1)c(C(C)=NOC1CCCCO1)c(C)n2C(=O)c1ccc(Cl)cc1 (centres undefined),115 to 119
20,COc1cc(C(C)C)c2c(c1)S(=O)(=O)N(COc1cc(C(F)(F)F)nn1-c1cccc(C(F)(F)F)n1)C2=O,149 to 150
21,Nc1nnc2ccccc2n1,208 to 210
22,CN1Cc2cc(Br)cnc2N(C)C1=O,119 to 120
23,CCOC(=O)c1c(C)nn(-c2c(Cl)cc(Cl)cc2Cl)c1N,150
24,Cc1ccc(C2=NCCc3c(Cl)cccc32)cc1,82.7 to 83.4
25,CCC12CCC3c4ccc(OC)cc4CCC3C1CCC2(OC(C)=O)C(C)=O (centres undefined),144 to 148
26,CC1(C)CCc2c(N3CCOCC3)nc3sc4c(NCc5cccnc5)ncnc4c3c2C1,249
